Assay results published in PubChem BioAssay (NCI).
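All cell lines were grown in 96-well plates and treated with compound for 48 hours. TGI marks complete inhibition of growth.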

Tests used:
Test in all cases: inhibition of tumour cell growth, NCI panel, 48 h
786-0 renal = tested on: 786-0 renal
A549 NSCLC = tested on: A549 NSCLC
ACHN renal = tested on: ACHN renal
CAKI-1 renal = tested on: CAKI-1 renal
CCRF-CEM leukemia = tested on: CCRF-CEM leukemia
COLO 205 colon = tested on: COLO 205 colon
DLD-1 colon = tested on: DLD-1 colon
DMS 273 small cell lung = tested on: DMS 273 small cell lung
EKVX NSCLC = tested on: EKVX NSCLC
HCC-2998 colon = tested on: HCC-2998 colon
HCT-116 colon = tested on: HCT-116 colon
HCT-15 colon = tested on: HCT-15 colon
HL-60(TB) leukemia = tested on: HL-60(TB) leukemia
HOP-18 NSCLC = tested on: HOP-18 NSCLC
HOP-62 NSCLC = tested on: HOP-62 NSCLC
HOP-92 NSCLC = tested on: HOP-92 NSCLC
HT29 colon = tested on: HT29 colon
K-562 leukemia = tested on: K-562 leukemia
KM12 colon = tested on: KM12 colon
KM20L2 colon = tested on: KM20L2 colon
LOX IMVI melanoma = tested on: LOX IMVI melanoma
LXFL 529 NSCLC = tested on: LXFL 529 NSCLC
M14 melanoma = tested on: M14 melanoma
M19-MEL melanoma = tested on: M19-MEL melanoma
MALME-3M melanoma = tested on: MALME-3M melanoma
MOLT-4 leukemia = tested on: MOLT-4 leukemia
NCI-H226 lung = tested on: NCI-H226 lung
NCI-H23 lung = tested on: NCI-H23 lung
NCI-H522 lung = tested on: NCI-H522 lung
OVCAR-4 ovarian = tested on: OVCAR-4 ovarian
OVCAR-5 ovarian = tested on: OVCAR-5 ovarian
OVCAR-8 ovarian = tested on: OVCAR-8 ovarian
SF-268 CNS = tested on: SF-268 CNS
SF-295 CNS = tested on: SF-295 CNS
SF-539 CNS = tested on: SF-539 CNS
SK-MEL-2 melanoma = tested on: SK-MEL-2 melanoma
SK-MEL-28 melanoma = tested on: SK-MEL-28 melanoma
SK-OV-3 ovarian = tested on: SK-OV-3 ovarian
SN12C renal = tested on: SN12C renal
SNB-19 CNS = tested on: SNB-19 CNS
SNB-75 CNS = tested on: SNB-75 CNS
SR leukemia = tested on: SR leukemia
SW-620 colon = tested on: SW-620 colon
TK-10 renal = tested on: TK-10 renal
U251 CNS = tested on: U251 CNS
UACC-257 melanoma = tested on: UACC-257 melanoma
UACC-62 melanoma = tested on: UACC-62 melanoma
UO-31 renal = tested on: UO-31 renal
A498 renal = tested on: A498 renal
BT-549 breast = tested on: BT-549 breast
DU-145 prostate = tested on: DU-145 prostate
HS 578T breast = tested on: HS 578T breast
IGROV1 ovarian = tested on: IGROV1 ovarian
MCF7 breast = tested on: MCF7 breast
MDA-MB-231 breast = tested on: MDA-MB-231 breast
MDA-MB-435 = tested on: MDA-MB-435
MDA-N = tested on: MDA-N
NCI-H460 lung = tested on: NCI-H460 lung
NCI/ADR-RES ovarian = tested on: NCI/ADR-RES ovarian
OVCAR-3 ovarian = tested on: OVCAR-3 ovarian
PC-3 prostate = tested on: PC-3 prostate
RPMI-8226 leukemia = tested on: RPMI-8226 leukemia
RXF 393 renal = tested on: RXF 393 renal
SK-MEL-5 melanoma = tested on: SK-MEL-5 melanoma
T-47D breast = tested on: T-47D breast

Molecule `[O-]c1c2cc(-[n+]3c(-c4ccccc4)cc(-c4ccccc4)cc3-c3ccccc3)cc1COCCOCCOCCOCCOC2` has a TGI (786-0 renal) of over 100 µM, a TGI (A549 NSCLC) of over 100 µM and a TGI (ACHN renal) of over 100 µM. It also gave a TGI (CAKI-1 renal) of over 100 µM, a TGI (CCRF-CEM leukemia) of over 100 µM and a TGI (COLO 205 colon) of 33.5 µM. For the same molecule, the TGI (DLD-1 colon) was over 100 µM, the TGI (DMS 273 small cell lung) was over 100 µM and the TGI (EKVX NSCLC) was over 100 µM. The TGI (HCC-2998 colon) was over 100 µM, the TGI (HCT-116 colon) was over 100 µM and the TGI (HCT-15 colon) was over 100 µM. For the same molecule, the TGI (HL-60(TB) leukemia) was over 100 µM, the TGI (HOP-18 NSCLC) was over 100 µM and the TGI (HOP-62 NSCLC) was over 100 µM. For the same molecule, the TGI (HOP-92 NSCLC) was 73.9 µM, the TGI (HT29 colon) was over 100 µM and the TGI (K-562 leukemia) was over 100 µM. The TGI (KM12 colon) was 50 µM, the TGI (KM20L2 colon) was over 100 µM and the TGI (LOX IMVI melanoma) was over 100 µM. It also gave a TGI (LXFL 529 NSCLC) of 55 µM, a TGI (M14 melanoma) of over 100 µM and a TGI (M19-MEL melanoma) of 87.3 µM. For the same molecule, the TGI (MALME-3M melanoma) was 98.3 µM, the TGI (MOLT-4 leukemia) was over 100 µM and the TGI (NCI-H226 lung) was over 100 µM. The TGI (NCI-H23 lung) was over 100 µM, the TGI (NCI-H522 lung) was over 100 µM and the TGI (OVCAR-4 ovarian) was over 100 µM. For the same molecule, the TGI (OVCAR-5 ovarian) was over 100 µM, the TGI (OVCAR-8 ovarian) was over 100 µM and the TGI (SF-268 CNS) was 93.5 µM. The TGI (SF-295 CNS) was over 100 µM, the TGI (SF-539 CNS) was over 100 µM and the TGI (SK-MEL-2 melanoma) was 44 µM. The TGI (SK-MEL-28 melanoma) was 46.7 µM, the TGI (SK-OV-3 ovarian) was over 100 µM and the TGI (SN12C renal) was over 100 µM. It also gave a TGI (SNB-19 CNS) of over 100 µM, a TGI (SNB-75 CNS) of over 100 µM and a TGI (SR leukemia) of 65.7 µM. It also gave a TGI (SW-620 colon) of over 100 µM, a TGI (TK-10 renal) of over 100 µM and a TGI (U251 CNS) of over 100 µM. For the same molecule, the TGI (UACC-257 melanoma) was 82.5 µM, the TGI (UACC-62 melanoma) was 44.2 µM and the TGI (UO-31 renal) was over 100 µM.
With `O=[N+]([O-])c1ccc(C(=S)Nc2ccccc2)o1` the TGI (786-0 renal) was 6.19 µM, the TGI (A498 renal) was 32.2 µM and the TGI (A549 NSCLC) was 22.4 µM. It also gave a TGI (ACHN renal) of 6.66 µM, a TGI (BT-549 breast) of 14.1 µM and a TGI (CAKI-1 renal) of 13.9 µM. The TGI (CCRF-CEM leukemia) was 11.4 µM, the TGI (COLO 205 colon) was 2.79 µM and the TGI (DU-145 prostate) was 19.9 µM. It also gave a TGI (EKVX NSCLC) of 12.5 µM, a TGI (HCC-2998 colon) of 3.17 µM and a TGI (HCT-116 colon) of 4.67 µM. For the same molecule, the TGI (HCT-15 colon) was 7.07 µM, the TGI (HL-60(TB) leukemia) was 6.35 µM and the TGI (HOP-62 NSCLC) was 9.08 µM. It also gave a TGI (HOP-92 NSCLC) of 31.8 µM, a TGI (HS 578T breast) of 32.7 µM and a TGI (HT29 colon) of 5.86 µM. The TGI (IGROV1 ovarian) was 17.8 µM, the TGI (K-562 leukemia) was 6.28 µM and the TGI (KM12 colon) was 6.88 µM. It also gave a TGI (LOX IMVI melanoma) of 8.6 µM, a TGI (M14 melanoma) of 14 µM and a TGI (MALME-3M melanoma) of 9.3 µM. The TGI (MCF7 breast) was 5.57 µM, the TGI (MDA-MB-231 breast) was 8.06 µM and the TGI (MDA-MB-435) was 7.63 µM. It also gave a TGI (MDA-N) of 9.53 µM, a TGI (MOLT-4 leukemia) of 11.7 µM and a TGI (NCI-H226 lung) of 15 µM. The TGI (NCI-H23 lung) was 12.4 µM, the TGI (NCI-H460 lung) was 12.1 µM and the TGI (NCI-H522 lung) was 3.11 µM. It also gave a TGI (NCI/ADR-RES ovarian) of 9.4 µM, a TGI (OVCAR-3 ovarian) of 6.38 µM and a TGI (OVCAR-4 ovarian) of 6.47 µM. For the same molecule, the TGI (OVCAR-5 ovarian) was 17.6 µM, the TGI (OVCAR-8 ovarian) was 10.6 µM and the TGI (PC-3 prostate) was 4.63 µM. It also gave a TGI (RPMI-8226 leukemia) of 4.9 µM, a TGI (RXF 393 renal) of 15.2 µM and a TGI (SF-268 CNS) of 13 µM. For the same molecule, the TGI (SF-295 CNS) was 15.5 µM, the TGI (SF-539 CNS) was 4.58 µM and the TGI (SK-MEL-2 melanoma) was 7.95 µM. The TGI (SK-MEL-28 melanoma) was 19.3 µM, the TGI (SK-MEL-5 melanoma) was 23.2 µM and the TGI (SK-OV-3 ovarian) was 24 µM. It also gave a TGI (SN12C renal) of 6.82 µM, a TGI (SNB-19 CNS) of 17.3 µM and a TGI (SNB-75 CNS) of 30.4 µM. For the same molecule, the TGI (SR leukemia) was 10 µM, the TGI (SW-620 colon) was 3.82 µM and the TGI (T-47D breast) was 95.1 µM. The TGI (TK-10 renal) was 14.1 µM, the TGI (U251 CNS) was 3.05 µM and the TGI (UACC-257 melanoma) was 8.82 µM. It also gave a TGI (UACC-62 melanoma) of 11.4 µM and a TGI (UO-31 renal) of 5.73 µM.
Work on `CCOC(=O)c1c(C)n(-c2ccc(Cl)cc2)c2c1cc(O)c1[nH]c3c(c12)CCCC3` yielded a TGI (786-0 renal) of over 100 µM, a TGI (A498 renal) of over 100 µM and a TGI (A549 NSCLC) of over 100 µM. It also gave a TGI (ACHN renal) of over 100 µM, a TGI (BT-549 breast) of over 100 µM and a TGI (CAKI-1 renal) of over 100 µM. For the same molecule, the TGI (CCRF-CEM leukemia) was over 100 µM, the TGI (COLO 205 colon) was over 100 µM and the TGI (DU-145 prostate) was over 100 µM. It also gave a TGI (EKVX NSCLC) of over 100 µM, a TGI (HCC-2998 colon) of over 100 µM and a TGI (HCT-116 colon) of over 100 µM. It also gave a TGI (HCT-15 colon) of over 100 µM, a TGI (HL-60(TB) leukemia) of over 100 µM and a TGI (HOP-62 NSCLC) of over 100 µM. The TGI (HOP-92 NSCLC) was over 100 µM, the TGI (HS 578T breast) was 72.4 µM and the TGI (HT29 colon) was over 100 µM. The TGI (IGROV1 ovarian) was over 100 µM, the TGI (K-562 leukemia) was over 100 µM and the TGI (KM12 colon) was over 100 µM. It also gave a TGI (LOX IMVI melanoma) of over 100 µM, a TGI (M14 melanoma) of over 100 µM and a TGI (MALME-3M melanoma) of over 100 µM. For the same molecule, the TGI (MCF7 breast) was over 100 µM, the TGI (MDA-MB-231 breast) was over 100 µM and the TGI (MDA-MB-435) was over 100 µM. For the same molecule, the TGI (MDA-N) was over 100 µM, the TGI (MOLT-4 leukemia) was over 100 µM and the TGI (NCI-H226 lung) was over 100 µM. For the same molecule, the TGI (NCI-H23 lung) was over 100 µM, the TGI (NCI-H460 lung) was over 100 µM and the TGI (NCI-H522 lung) was 60.4 µM. The TGI (NCI/ADR-RES ovarian) was over 100 µM, the TGI (OVCAR-3 ovarian) was over 100 µM and the TGI (OVCAR-4 ovarian) was over 100 µM. The TGI (OVCAR-5 ovarian) was over 100 µM, the TGI (OVCAR-8 ovarian) was over 100 µM and the TGI (PC-3 prostate) was over 100 µM. For the same molecule, the TGI (RPMI-8226 leukemia) was over 100 µM, the TGI (RXF 393 renal) was over 100 µM and the TGI (SF-268 CNS) was over 100 µM. It also gave a TGI (SF-295 CNS) of over 100 µM, a TGI (SF-539 CNS) of over 100 µM and a TGI (SK-MEL-2 melanoma) of 92.9 µM. It also gave a TGI (SK-MEL-28 melanoma) of over 100 µM, a TGI (SK-MEL-5 melanoma) of 49.4 µM and a TGI (SK-OV-3 ovarian) of over 100 µM. For the same molecule, the TGI (SN12C renal) was over 100 µM, the TGI (SNB-19 CNS) was over 100 µM and the TGI (SNB-75 CNS) was over 100 µM. The TGI (SR leukemia) was 43.3 µM, the TGI (SW-620 colon) was over 100 µM and the TGI (T-47D breast) was over 100 µM. The TGI (TK-10 renal) was over 100 µM, the TGI (U251 CNS) was over 100 µM and the TGI (UACC-257 melanoma) was over 100 µM. The TGI (UACC-62 melanoma) was over 100 µM and the TGI (UO-31 renal) was over 100 µM.
